Measured values published in patent US3965109A, “Certain aryl amino pyridines” (priority 1971, dated 1976).

Legend:
Format in all cases: in vivo
[1] = tested on: Tetranychus telarius (red spider mites, adults); test: Pest toxicity test; details: 0.1% by weight; French bean; 3 days
[2] = tested on: Tetranychus telarius (red spider mites, eggs); test: Pest toxicity test; details: 0.1% by weight; French bean; 3 days
[3] = tested on: Aphis fabae; test: Pest toxicity test; details: 0.1% by weight; broad bean; 2 days
[4] = tested on: Megoura viceae; test: Pest toxicity test; details: 0.1% by weight; broad bean; 2 days
[5] = tested on: Aedes aegypti (mosquito larvae); test: Pest toxicity test; details: for Mortality grading (kill): 0.01% by weight, water, 1 day
[6] = tested on: Aedes aegypti (mosquito adults); test: Pest toxicity test; details: 0.01% by weight; plywood; 1 day
[7] = tested on: Musca domestica (houseflies); test: Pest toxicity test, contact test; details: 0.1% by weight; milk/sugar; 2 days; flies sprayed directly
[8] = tested on: Pieris brassicae (cabbage white caterpillars); test: Pest toxicity test; details: 0.1% by weight, 2 days
[9] = tested on: Plutella maculipennis (diamond back moth larvae); test: Pest toxicity test
[10] = tested on: Phaedon cochleariae (mustard beetles); test: Pest toxicity test
[11] = tested on: Puccinia recondita (wheat); test: Fungicidal test against foliar disease A (foliage spray plus soil drench); details: 100 ppm spray and drench; 10 days
[12] = tested on: Phytophthora infestans (tomato); details: 100 ppm spray and drench; 3 days
[13] = tested on: Plasmopara viticola (vine); test: Fungicidal test against foliar disease C (foliage spray plus soil drench); details: 100 ppm spray and drench; 10 days
[14] = tested on: Uncinula necator (vine); test: Fungicidal test against foliar disease D (foliage spray plus soil drench); details: 100 ppm spray and drench; 10 days
[15] = tested on: Piricularia oryzae (rice); details: 100 ppm spray and drench; 7 days
[16] = tested on: Lettuce; test: Herbicidal test, pre- and post-emergence
[17] = tested on: Tomato; test: Herbicidal test, pre- and post-emergence
[18] = tested on: Wheat; test: Herbicidal test, pre- and post-emergence
[19] = tested on: Maize; test: Herbicidal test, pre- and post-emergence
[20] = tested on: Sugar beet; test: Further herbicidal test, various rates; details: 5 lb/acre; scale 0 to 5 (complete kill)
[21] = tested on: Kale; test: Further herbicidal test, various rates; details: 5 lb/acre; scale 0 to 5 (complete kill)
[22] = tested on: Carrot; test: Further herbicidal test, various rates; details: 5 lb/acre; scale 0 to 5 (complete kill)
[23] = tested on: Pea; test: Further herbicidal test, various rates; details: 5 lb/acre; scale 0 to 5 (complete kill)
[24] = tested on: Onion; test: Further herbicidal test, various rates; details: 5 lb/acre; scale 0 to 5 (complete kill)
[25] = tested on: Barley; test: Further herbicidal test, various rates; details: 5 lb/acre; scale 0 to 5 (complete kill)
[26] = tested on: Rice; test: Further herbicidal test, various rates; details: 5 lb/acre; scale 0 to 5 (complete kill)
[27] = tested on: Oat; test: Further herbicidal test, various rates; details: 5 lb/acre; scale 0 to 5 (complete kill)
[28] = 0.1% by weight, mustard/paper, 2 days
[29] = 10 lb/acre (11.2 kg/ha), scale 0 (no effect) to 3 (complete kill)
[30] = 10 kg/ha, scale 0 to 3 (complete kill)

Fc1nc(F)c(Cl)c(Nc2ccccc2)c1Cl [Compound 2, 4-Anilino-3,5-dichloro-2,6-difluoropyridine]
Mortality grading (kill) [1]: 3 (3 represents over 90% kill) | Mortality grading (kill) [2]: 0 (O represents less than 30% kill) | Mortality grading (kill) [3]: 0 (O represents less than 30% kill) | Mortality grading (kill) [4]: 0 (O represents less than 30% kill) | Mortality grading (kill) [5]: 0 (O represents less than 30% kill) | Mortality grading (kill) [6]: 0 (O represents less than 30% kill) | Mortality grading (kill), contact test [7]: 0 (O represents less than 30% kill) | Mortality grading (kill) [8]: 0 (O represents less than 30% kill) | Mortality grading (kill) [9, 28]: 0 (O represents less than 30% kill) | Mortality grading (kill) [10, 28]: 0 (O represents less than 30% kill)

Fc1nc(F)c(Cl)c(Nc2c(Cl)cc(Cl)cc2Cl)c1Cl [Compound 7, 3,5-Dichloro-2,6-difluoro-4(2,4,6-trichloroanilino)pyridine]
Amount of disease grading, disease A [11]: 2 (6 to 25) | Amount of disease grading, disease B [12]: 0 (61 to 100) | Amount of disease grading, disease C [13]: 0 (61 to 100) | Amount of disease grading, disease D [14]: 0 (61 to 100) | Amount of disease grading, disease E [15]: 0 (61 to 100) | abnormal growth effects in larva of mosquitos ([5]; in vivo): abnormal growth effects

Fc1nc(F)c(Cl)c(Nc2c(F)c(F)c(F)c(F)c2F)c1Cl [Compound 10, 3,5-Dichloro-2,6-difluoro-4(pentafluoroanilino)pyridine]
Mortality grading (kill) [1]: 3 (3 represents over 90% kill) | Mortality grading (kill) [3]: 0 (O represents less than 30% kill) | Mortality grading (kill) [4]: 0 (O represents less than 30% kill) | Mortality grading (kill) [5]: 2 (2 represents 60 - 90% kill) | Mortality grading (kill) [6]: 2 (2 represents 60 - 90% kill) | Mortality grading (kill), contact test [7]: 0 (O represents less than 30% kill) | Mortality grading (kill) [8]: 0 (O represents less than 30% kill) | Mortality grading (kill) ([9]; in vivo): 0 (key: O represents less than 30% kill; 1 represents 30 - 49% kill; 2 represents 60 - 90% kill; 3 represents over 90% kill; C indicates a chemosterilant effect.; A indicates an antifeeding effect.) | Mortality grading (kill) ([10]; in vivo): 0 (key: O represents less than 30% kill; 1 represents 30 - 49% kill; 2 represents 60 - 90% kill; 3 represents over 90% kill; C indicates a chemosterilant effect.; A indicates an antifeeding effect.) | Damage to plants, post-emergence [16, 29]: 3 | Damage to plants, pre-emergence [16, 29]: 2 | Damage to plants, post-emergence [17, 29]: 3 | Damage to plants, pre-emergence [17, 29]: 1 | Damage to plants, post-emergence [18, 29]: 1 | Damage to plants, pre-emergence [18, 29]: 0 | Damage to plants, post-emergence [19, 29]: 0 | Damage to plants, pre-emergence [19, 29]: 0 | Damage to plants, post-emergence [20]: 3 | Damage to plants, pre-emergence [20]: 0 | Damage to plants, post-emergence [21]: 3 | Damage to plants, pre-emergence [21]: 1 | Damage to plants, post-emergence [22]: 2 | Damage to plants, pre-emergence [22]: 1 | Damage to plants, post-emergence [23]: 0 | Damage to plants, pre-emergence [23]: 3 | Damage to plants, post-emergence [24]: 2 | Damage to plants, pre-emergence [24]: 0 | Damage to plants, post-emergence [25]: 0 | Damage to plants, pre-emergence [25]: 3 | Damage to plants, post-emergence [26]: 0 | Damage to plants, post-emergence [27]: 0 | Damage to plants, pre-emergence [27]: 0

Fc1nc(F)c(Cl)c(Nc2cccc(C(F)(F)F)c2)c1Cl [Compound 17, 3,5-Dichloro-2,6-difluoro-4(3-trifluoromethylanilino)pyridine]
Amount of disease grading, disease A [11]: 0 (61 to 100) | Amount of disease grading, disease B [12]: 1 (26 to 60) | Amount of disease grading, disease C [13]: 3 (0 to 5) | Amount of disease grading, disease D [14]: 0 (61 to 100) | Amount of disease grading, disease E [15]: 0 (61 to 100)

CN(C)S(=O)(=O)c1cc(Cl)c(Nc2c(Cl)c(F)nc(F)c2Cl)cc1Cl [Compound 31, 3,5-Dichlor-2,6-difluoro-4(2,5-dichlor-4-N,N-dimethylsulphamoylanilino)pyridine]
Amount of disease grading, disease A (Table 4) [11]: 2 (6 to 25) | Amount of disease grading, disease B (Table 4) [12]: 0 (61 to 100) | Amount of disease grading, disease C (Table 4) [13]: 3 (0 to 5) | Amount of disease grading, disease D (Table 4) [14]: 3 (0 to 5) | Amount of disease grading, disease E (Table 4) [15]: 0 (61 to 100)

O=[N+]([O-])c1ccc(Nc2c(Cl)c(F)nc(F)c2Cl)cc1C(F)(F)F [Compound 36, 3,5-Dichloro-2,6-difluoro-4(4-nitro-3-trifluoromethylanilino) pyridine]
Amount of disease grading, disease A (Table 4) [11]: 2 (6 to 25) | Amount of disease grading, disease B (Table 4) [12]: 2 (6 to 25) | Amount of disease grading, disease C (Table 4) [13]: 3 (0 to 5) | Amount of disease grading, disease D (Table 4) [14]: 0 (61 to 100) | Amount of disease grading, disease E (Table 4) [15]: 1 (26 to 60)

O=[N+]([O-])c1ccc(Nc2c(F)c(F)nc(F)c2Cl)c([N+](=O)[O-])c1 [Compound 38, 3-Chloro-4(2,4-dinitroanilino)-2,5,6-trifluoropyridine]
Amount of disease grading, disease A (Table 4) [11]: 1 (26 to 60) | Amount of disease grading, disease C (Table 4) [13]: 3 (0 to 5) | Amount of disease grading, disease D (Table 4) [14]: 3 (0 to 5) | Amount of disease grading, disease E (Table 4) [15]: 2 (6 to 25) | Mortality grading (kill) [1]: 3 (3 represents over 90% kill) | Mortality grading (kill) [2]: 3 (3 represents over 90% kill) | Mortality grading (kill) [3]: 0 (O represents less than 30% kill) | Mortality grading (kill) [4]: 0 (O represents less than 30% kill) | Mortality grading (kill) [5]: 3 (3 represents over 90% kill) | Mortality grading (kill) [6]: 0 (O represents less than 30% kill) | Mortality grading (kill), contact test [7]: 0 (O represents less than 30% kill) | Mortality grading (kill) [8]: 3 (3 represents over 90% kill) | Mortality grading (kill) ([9]; in vivo): 0 (key: O represents less than 30% kill; 1 represents 30 - 49% kill; 2 represents 60 - 90% kill; 3 represents over 90% kill; C indicates a chemosterilant effect.; A indicates an antifeeding effect.) | Mortality grading (kill) ([10]; in vivo): 0 (key: O represents less than 30% kill; 1 represents 30 - 49% kill; 2 represents 60 - 90% kill; 3 represents over 90% kill; C indicates a chemosterilant effect.; A indicates an antifeeding effect.) | Damage to plants, post-emergence [16, 30]: 3 | Damage to plants, pre-emergence [16, 30]: 3 | Damage to plants, post-emergence [17, 30]: 3 | Damage to plants, pre-emergence [17, 30]: 3 | Damage to plants, post-emergence [18, 30]: 0 | Damage to plants, pre-emergence [18, 30]: 2 | Damage to plants, post-emergence [19, 30]: 0 | Damage to plants, pre-emergence [19, 30]: 0

O=[N+]([O-])c1cc([N+](=O)[O-])c(Nc2c(F)c(F)nc(F)c2F)cc1F [Compound 39, 4(2,4-Dinitro-5-fluoranilino)tetrafluoropyridine]
Amount of disease grading, disease A (Table 4) [11]: 1 (26 to 60) | Amount of disease grading, disease B (Table 4) [12]: 2 (6 to 25) | Amount of disease grading, disease C (Table 4) [13]: 3 (0 to 5) | Amount of disease grading, disease D (Table 4) [14]: 0 (61 to 100) | Amount of disease grading, disease E (Table 4) [15]: 1 (26 to 60)

CNC(=O)N(c1c(F)c(F)c(C#N)c(F)c1F)c1c(Cl)c(F)nc(OC)c1Cl [Compound 46]
Mortality grading (kill) [1]: 2 (2 represents 60 - 90% kill) | Mortality grading (kill) [2]: 0 (O represents less than 30% kill) | Mortality grading (kill) [3]: 0 (O represents less than 30% kill) | Mortality grading (kill) [4]: 0 (O represents less than 30% kill) | Mortality grading (kill) [5]: 3 (3 represents over 90% kill) | Mortality grading (kill) [6]: 0 (O represents less than 30% kill) | Mortality grading (kill), contact test [7]: 0 (O represents less than 30% kill) | Mortality grading (kill) [8]: 0 (O represents less than 30% kill) | Mortality grading (kill) [9, 28]: 0 (O represents less than 30% kill) | Mortality grading (kill) [10, 28]: 0 (O represents less than 30% kill)
